ChEMBL document CHEMBL1138111, “Reduction of CYP450 inhibition in the 4-[(1H-imidazol-4-yl)methyl]piperidine series of histamine H3 receptor antagonists” (Bioorg Med Chem Lett, 2006)

Columns and labels:
Cytochrome P450 2D6 [1] = biological target: T1, Cytochrome P450 2D6 (Homo sapiens, UniProt P10635); experiment: Inhibition of CYP2D6 by human liver microsome assay; type: ADME, microsomes
Cytochrome P450 3A4 = Cytochrome P450 3A4 (Homo sapiens, UniProt P08684); experiment: Inhibitory activity against CYP3A4; type: ADME
Histamine H3 receptor [2] = biological target: T2, Histamine H3 receptor (Cavia porcellus, UniProt Q9JI35); experiment: Displacement of [3H]N-alpha-methylhistamine from guinea pig histamine H3 receptor
Cytochrome P450 2D6 [3] = biological target: T1, Cytochrome P450 2D6; experiment: Inhibition of CYP2D6 by supersome assay; type: ADME
Histamine H3 receptor [4] = biological target: T2, Histamine H3 receptor; experiment: Antagonistic activity against histamine H3 receptor in guinea pig ileum; type: functional, tissue-based; conditions: read-out: pA2 (converted)
[5] = Plasma AUC (0-6 h) in rat at 10 mg/kg, po; type: ADME, organism-based; design: time < 6 hr, dose 10 mg/kg, route oral
[6] = Plasma AUC (0-24 h) in monkey at 3 mg/kg, po; type: ADME, organism-based, Macaca mulatta; design: time < 24 hr, dose 3 mg/kg, route oral; conditions: rhesus monkey

T1 sequence (P10635 whole entry): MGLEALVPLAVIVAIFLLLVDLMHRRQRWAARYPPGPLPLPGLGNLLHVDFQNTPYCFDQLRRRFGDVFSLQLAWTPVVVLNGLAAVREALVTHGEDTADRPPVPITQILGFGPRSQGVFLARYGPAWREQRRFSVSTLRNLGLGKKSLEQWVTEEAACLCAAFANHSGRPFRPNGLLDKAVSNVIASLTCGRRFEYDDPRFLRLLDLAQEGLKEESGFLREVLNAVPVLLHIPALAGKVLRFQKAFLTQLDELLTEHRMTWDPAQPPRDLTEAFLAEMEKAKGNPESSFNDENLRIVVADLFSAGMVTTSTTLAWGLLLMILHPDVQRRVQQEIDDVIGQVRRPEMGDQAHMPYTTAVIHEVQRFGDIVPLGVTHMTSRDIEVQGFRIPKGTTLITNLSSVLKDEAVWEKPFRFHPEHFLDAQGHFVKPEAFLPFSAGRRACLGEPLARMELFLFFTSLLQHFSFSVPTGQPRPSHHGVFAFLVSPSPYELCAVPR
T2 sequence (Q9JI35 whole entry): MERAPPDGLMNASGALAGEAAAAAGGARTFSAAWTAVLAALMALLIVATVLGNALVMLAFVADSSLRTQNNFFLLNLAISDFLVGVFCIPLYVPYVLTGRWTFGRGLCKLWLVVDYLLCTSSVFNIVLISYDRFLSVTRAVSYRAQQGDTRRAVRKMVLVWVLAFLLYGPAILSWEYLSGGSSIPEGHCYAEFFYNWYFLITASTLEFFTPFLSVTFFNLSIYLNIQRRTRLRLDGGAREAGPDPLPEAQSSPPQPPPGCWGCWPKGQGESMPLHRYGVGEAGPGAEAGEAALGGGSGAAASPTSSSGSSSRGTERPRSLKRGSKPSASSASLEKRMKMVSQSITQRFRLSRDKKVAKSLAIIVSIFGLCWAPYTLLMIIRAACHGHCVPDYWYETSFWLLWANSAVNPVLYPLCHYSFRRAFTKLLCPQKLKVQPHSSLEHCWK
Sequence of Cytochrome P450 3A4 (P08684 whole entry): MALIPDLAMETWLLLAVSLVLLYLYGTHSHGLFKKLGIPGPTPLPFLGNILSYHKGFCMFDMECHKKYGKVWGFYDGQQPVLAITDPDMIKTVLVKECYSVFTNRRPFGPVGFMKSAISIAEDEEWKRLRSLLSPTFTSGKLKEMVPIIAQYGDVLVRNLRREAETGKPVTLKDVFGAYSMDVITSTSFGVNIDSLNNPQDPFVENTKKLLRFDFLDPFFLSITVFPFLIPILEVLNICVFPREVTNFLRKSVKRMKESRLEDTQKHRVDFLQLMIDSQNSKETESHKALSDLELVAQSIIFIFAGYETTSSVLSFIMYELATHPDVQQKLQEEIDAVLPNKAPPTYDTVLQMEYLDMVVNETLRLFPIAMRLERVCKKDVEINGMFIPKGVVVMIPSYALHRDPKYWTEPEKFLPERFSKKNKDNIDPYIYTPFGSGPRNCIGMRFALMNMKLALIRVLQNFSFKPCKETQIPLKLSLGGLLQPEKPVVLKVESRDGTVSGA

| Structure (SMILES) | IC50 (Cytochrome P450 2D6 [1]) [nM] | IC50 (Cytochrome P450 3A4) [nM] | Ki (Histamine H3 receptor [2]) [nM] | IC50 (Cytochrome P450 2D6 [3]) [nM] | Kb (Histamine H3 receptor [4]) [nM] | AUC(0-t) at 24 h [6] [µM·h] | AUC(0-t) at 6 h [5] [µM·h] |
| --- | --- | --- | --- | --- | --- | --- | --- |
| c1ccc(OCCCN2CCC(Cc3c[nH]cn3)CC2)cc1 | 30 | > 20000 | – | – | – | – | – |
| NC(=O)C1CCN(Cc2ccc(OCCCN3CCC(Cc4c[nH]cn4)CC3)cc2)CC1 | – | – | 16 | > 30000 | 25.1 | – | – |
| O=C(CCOc1ccc(CN2CCCCC2)cc1)N1CCC(Cc2cnc[nH]2)CC1 | 1000 | – | 315 | – | – | – | 1.83 |
| Nc1ncc(-c2ccc(OCCCN3CCC(Cc4c[nH]cn4)CC3)cc2)cn1 | 12000 | – | 12 | – | 20 | – | – |
| c1ncc(CC2CCN(CCOc3ccc(CN4CCCCC4)cc3)CC2)[nH]1 | 3000 | – | 5 | – | – | – | – |
| c1ncc(CC2CCN(CCCOc3ccc(OC4CCCCC4)cc3)CC2)[nH]1 | 300 | – | 6 | – | – | – | – |
| c1cnc(-c2ccc(OCCCN3CCC(Cc4cnc[nH]4)CC3)cc2)nc1 | 6000 | – | 45 | – | – | – | – |
| O=C1CCCCN1Cc1ccc(OCCCN2CCC(Cc3cnc[nH]3)CC2)cc1 | – | – | 34 | 5000 | – | – | – |
| O=C(c1ccc(OCCCN2CCC(Cc3cnc[nH]3)CC2)nc1)N1CCCCC1 | 2000 | – | 24 | – | 20 | – | – |
| c1ncc(CC2CCN(CCCOc3ccc(NC4CCCCC4)cc3)CC2)[nH]1 | 900 | – | 15 | – | – | – | – |
| c1ncc(CC2CCN(CCCOc3ccc(CCN4CCCCC4)cc3)CC2)[nH]1 | – | – | 3 | 1000 | 3.16 | – | – |
| O=C(Nc1nccs1)N1CCC(Cc2cnc[nH]2)CC1 | 2000 | – | 4 | – | 25.1 | – | 1.03 |
| O=C(Nc1ncccn1)N1CCC(Cc2c[nH]cn2)CC1 | 6000 | – | 8 | – | 25.1 | – | – |
| CCN(CC)Cc1ccc(OCCCN2CCC(Cc3c[nH]cn3)CC2)cc1 | 6000 | – | 4 | – | 1.58 | – | – |
| c1nc(CC2CCN(CCCOc3ccc(N4CCCCC4)cc3)CC2)c[nH]1 | 1000 | – | 15 | – | – | – | – |
| c1cc(OCCCN2CCC(Cc3cnc[nH]3)CC2)cc(OC2CCCCC2)c1 | 2000 | – | 3 | – | – | – | – |
| O=C(CCc1ccc(CN2CCCCC2)cc1)N1CCC(Cc2c[nH]cn2)CC1 | 3000 | – | 45 | – | – | – | – |
| CN(C)CCCOc1ccc(CN2CCCCC2)cc1 | > 30000 | > 30000 | 33 | – | 31.6 | – | – |

Further lines, with some results ahead:

| IC50 (Cytochrome P450 2D6 [1]) [nM] | IC50 (Cytochrome P450 3A4) [nM] | Ki (Histamine H3 receptor [2]) [nM] | IC50 (Cytochrome P450 2D6 [3]) [nM] | Kb (Histamine H3 receptor [4]) [nM] | AUC(0-t) at 24 h [6] [µM·h] | Structure (SMILES) | AUC(0-t) at 6 h [5] [µM·h] |
| --- | --- | --- | --- | --- | --- | --- | --- |
| 6000 | – | 4 | – | – | – | FC1(F)CCN(Cc2ccc(OCCCN3CCC(Cc4cnc[nH]4)CC3)cc2)CC1 | – |
| – | – | 26 | 2000 | 20 | – | O=C(c1ccc(OCCCN2CCC(Cc3c[nH]cn3)CC2)cc1)N1CCCCC1 | – |
| > 30000 | – | 17 | – | 79.4 | – | CN(C)CCCOc1ccc(CN2CCC(Cc3cnc[nH]3)CC2)cc1 | – |
| 3000 | – | 10 | – | 7.94 | – | c1nc(CC2CCN(CCCOc3ccc(CN4CCCCC4)nc3)CC2)c[nH]1 | – |
| > 20000 | – | 16 | – | 15.8 | – | c1nc(CC2CCN(CCCCOc3ccc(CN4CCCCC4)cc3)CC2)c[nH]1 | – |
| 2000 | – | 52 | – | – | – | c1cnc2ccc(OCCCN3CCC(Cc4cnc[nH]4)CC3)cc2c1 | – |
| 4000 | – | 9 | – | – | – | c1ncc(-c2ccc(OCCCN3CCC(Cc4cnc[nH]4)CC3)cc2)cn1 | – |
| 30000 | – | – | – | – | – | O=C(CCOc1ccc(C(=O)N2CCNCC2)cc1)N1CCC(Cc2c[nH]cn2)CC1 | – |
| 3000 | – | 1 | – | 3.98 | – | c1cc(CN2CCCCC2)cc(OCCCN2CCC(Cc3cnc[nH]3)CC2)c1 | – |
| > 30000 | – | 3 | – | – | – | c1ncc(CC2CCN(CCCOc3ccc(CN4CCC(N5CCCCC5)CC4)cc3)CC2)[nH]1 | – |
| 300 | – | 12 | – | – | – | c1cncc(-c2ccc(OCCCN3CCC(Cc4cnc[nH]4)CC3)cc2)c1 | – |
| 14000 | – | 3 | – | 2.51 | 3.2 | c1nc(CC2CCN(CCCOc3ccc(CN4CCCCC4)cc3)CC2)c[nH]1 | – |
| > 20000 | – | 23 | – | 15.8 | – | O=C(c1ccc(OCCCN2CCC(Cc3cnc[nH]3)CC2)cc1)N1CCNCC1 | – |
| 9000 | – | 40 | – | – | – | O=C(CCN1CCC(Cc2c[nH]cn2)CC1)Nc1ccc(CN2CCCCC2)cc1 | – |
| > 20000 | – | 12 | – | – | – | c1ncc(CC2CCN(CCCOc3ccc(N4CCNCC4)cc3)CC2)[nH]1 | – |
| > 30000 | – | 13 | – | 50.1 | – | CN(C)CCCOc1ccc(CCCN2CCC(Cc3cnc[nH]3)CC2)cc1 | – |
